According to PubChem BioAssay AID1082 (University of Pittsburgh Molecular Library Screening Center, 2008):
Values joined by “and” are separate entries in the source; they are usually repeats but may differ in a detail not shown here. Identical values can stand only once. Active and inactive are the calls of the source. No rule for the calls is given here.

The compounds below were run against Serine/threonine-protein kinase PLK1 (Homo sapiens) (UniProt P53350) (assay: PLK1 polo box domain binding inhibitors, SAR follow-up, biochemical, fluorescence polarization, synthesized analogs, IC50 (AID 1082)). Settings: PLK1 PBD phosphopeptide binding.
Serine/threonine-protein kinase PLK1 (Homo sapiens), sequence (P53350 whole entry, looked up, the tested form may be a part): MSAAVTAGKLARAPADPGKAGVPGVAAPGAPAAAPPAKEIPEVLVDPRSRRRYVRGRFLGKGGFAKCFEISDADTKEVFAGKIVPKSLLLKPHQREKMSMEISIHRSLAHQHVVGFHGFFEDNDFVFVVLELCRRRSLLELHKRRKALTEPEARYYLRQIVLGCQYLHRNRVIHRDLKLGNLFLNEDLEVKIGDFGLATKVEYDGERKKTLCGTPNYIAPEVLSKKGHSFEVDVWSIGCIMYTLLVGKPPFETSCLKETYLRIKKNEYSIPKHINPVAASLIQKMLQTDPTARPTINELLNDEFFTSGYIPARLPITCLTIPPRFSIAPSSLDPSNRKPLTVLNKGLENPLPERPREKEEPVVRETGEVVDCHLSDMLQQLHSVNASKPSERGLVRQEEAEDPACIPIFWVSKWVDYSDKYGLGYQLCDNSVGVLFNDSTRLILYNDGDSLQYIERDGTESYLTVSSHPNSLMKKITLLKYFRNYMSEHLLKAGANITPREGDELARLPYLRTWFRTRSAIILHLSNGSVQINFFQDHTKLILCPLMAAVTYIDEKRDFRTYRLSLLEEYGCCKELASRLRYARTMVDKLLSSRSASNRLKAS

Row | Compound | IC50
1 | CCOC(=O)CCCCCNC(=O)c1c(N)n(C)c(=O)n(C)c1=O | > 50 µM (inactive)
2 | COC(=O)c1ccccc1NC(=O)c1c(O)c2c([nH]c1=O)CCCC2 | > 50 µM (inactive)
3 | CCOC(=O)c1ccc(NC(=O)c2c(N)n(C)c(=O)n(C)c2=O)cc1 | > 50 µM (inactive)
4 | CCCOc1ccc(C(=O)Nc2c[nH]c(=O)[nH]c2=O)cc1 | > 50 µM (inactive)
5 | CCOC(=O)c1cccc(NC(=O)c2c(NCc3ccccc3)[nH]c(=O)[nH]c2=O)c1 | > 50 µM (inactive)
6 | CC1(C)CC(=O)C(C2(O)C(=O)NC(=O)NC2=O)=C(O)C1 | > 50 µM (inactive)
7 | CCOC(=O)c1ccccc1NC(=O)c1c(N)n(C)c(=O)[nH]c1=O | > 50 µM (inactive)
8 | Cn1cc(C(=O)CNc2ccccc2)c(=O)n(C)c1=O | > 50 µM (inactive)
9 | CCOC(=O)c1cccc(NC(=O)c2c(O)[nH]c(=O)[nH]c2=O)c1 | > 50 µM (inactive)
10 | CCOC(=O)c1ccc(NC(=O)c2c(N)n(Cc3ccccc3)c(=O)[nH]c2=O)cc1 | > 50 µM (inactive)
11 | Cn1c2c(c(=O)n(C)c1=O)C(c1ccc(C(F)(F)F)cc1)CC(=O)N2 (stereo not given) | > 50 µM (inactive)
12 | Cc1ccc(N=Cc2c(O)n(-c3ccc(C)cc3)c(=O)[nH]c2=O)cc1 | > 50 µM (inactive)
13 | CC(C)c1ccc(NC(=O)COC(=O)c2c[nH]c(=O)[nH]c2=O)cc1 | > 50 µM (inactive)
14 | O=C(Nc1ccccc1)c1c(O)[nH]c(=S)[nH]c1=O | > 50 µM (inactive)
15 | O=c1[nH]c(NC2CCCCC2)c([N+](=O)[O-])c(=O)[nH]1 | > 50 µM (inactive)
16 | CCOC(=O)c1cccc(NC(=O)c2c(N)n(C)c(=O)[nH]c2=O)c1 | > 50 µM (inactive)
17 | CCOC(=O)c1ccc(NS(=O)(=O)c2c(N)n(C)c(=O)n(C)c2=O)cc1 | > 50 µM (inactive)
18 | O=C(N/N=C/c1c(O)[nH]c(=O)[nH]c1=O)c1ccncc1 | > 50 µM (inactive)

Row | Compound | IC50
19 | Cc1ccc(NC(=O)c2c[nH]c(=O)[nH]c2=O)cc1 | > 50 µM (inactive)
20 | O=C(Nc1ccccc1)c1c(O)[nH]c(=O)[nH]c1=O | > 50 µM (inactive)
21 | Cn1c(N)c(C(=O)Nc2ccccc2)c(=O)[nH]c1=O | > 50 µM (inactive)
22 | CCC(=O)Oc1ccc(C(=O)Nc2c[nH]c(=O)[nH]c2=O)cc1 | > 50 µM (inactive)
23 | O=c1[nH]c(=S)[nH]c(O)c1/C=N/Nc1ccccc1 | > 50 µM (inactive)
24 | CCOC(=O)c1ccc(NC(=O)c2c(O)[nH]c(=O)[nH]c2=O)cc1 | > 50 µM (inactive) and 2.89 µM
25 | CCOc1ccc(NC(=O)c2c(N)n(C)c(=O)[nH]c2=O)cc1 | > 50 µM (inactive)
26 | CCOC(=O)c1ccccc1NC(=O)c1c(O)[nH]c(=S)[nH]c1=O | > 50 µM (inactive)
27 | CCOC(=O)c1ccc(NC(=O)c2c(NCc3ccccc3)[nH]c(=O)[nH]c2=O)cc1 | > 50 µM (inactive)
28 | CCOC(=O)c1ccc(NS(=O)(=O)c2c(N)[nH]c(=O)[nH]c2=O)cc1 | > 50 µM (inactive)
29 | Cn1c(N)c(S(=O)(=O)Nc2ccccc2)c(=O)n(C)c1=O | > 50 µM (inactive)
30 | COc1ccc(/C=C/C(=O)c2c(O)n(CCC3=CCCCC3)c(=O)[nH]c2=O)cc1 | > 50 µM (inactive)
31 | CCCCOC(=O)c1ccc(NC(=O)c2c(N)n(C)c(=O)[nH]c2=O)cc1 | > 50 µM (inactive)
32 | CCCCOC(=O)c1ccc(NC(=O)c2c(O)[nH]c(=O)[nH]c2=O)cc1 | > 50 µM (inactive)
33 | CCOC(=O)c1ccc(NC(=O)c2c(N)n(C)c(=O)[nH]c2=O)cc1 | > 50 µM (inactive)
34 | CCOC(=O)c1ccccc1NC(=O)c1c(O)[nH]c(=O)[nH]c1=O | > 50 µM (inactive)
35 | CCOc1ccc(NC(=O)c2c(O)[nH]c(=O)[nH]c2=O)cc1 | > 50 µM (inactive)
